Reference: US8986662B2, “Use of silane and siloxane bis(biphenyl) triazine derivatives as UV absorbers” (BASF SE, priority 2010, dated 2015)

Columns and labels:
Assay type in all cases: physicochemical
[1] = UV shielding properties: UV spectra in ethanol
Source text: The UV shielding properties of the bisbiphenyl triazine derivatives were investigated by measuring their UV spectra in ethanol. In the following table the investigated absorption maxima (λmax) together with the corresponding A^1%1cm values are listed.

[2] = Measurement of solubility in Capric/Caprylic Triglyceride; settings: solvent Capric/Caprylic Triglyceride
[3] = Measurement of photostability: irradiation of highly diluted ethanol solution, analysis by UV-spectroscopy; settings: first order kinetic model; diluted solution in ethanol; half-life under COLIPA standard sun irradiation
Experimental: The method used for assessment of photostability is based on the irradiation of a highly diluted solution of the UV-filter. The analysis after certain doses of irradiation was performed by UV-spectroscopy. The concentration of the UV-absorber in ethanol is adjusted to values between […], such that the absorbance of the solution in cuvette of 1 cm optical pathlength is equal or smaller than 0.2. The mutual protection of filter molecules can be excluded under such conditions.
Prior to irradiation of a sample the UVB-intensity at the sample position is measured with a UV-radiometer (RM-12, Dr. Grobel Electronic GmbH). […] Therefore the relationship of the reading of the RM-12 radiometer and the corresponding spectral output of the lamp is known, and one is able to determine the wavelength-resolved intensities by measuring the UVB-intensity. […]
For sample irradiation the highest possible intensity was used (4.5 mW/cm^2 UVB-intensity measured with the Macam 103 radiometer). […] After certain intervals of irradiation, the samples were analysed in a UV-spectrometer (Perkin Elmer, Lambda 16).
From the absorbance values at each dose of irradiation the concentration may be calculated using Lambert-Beer's law. […]

[4] = UV spectrum in tetrahydrofurane (synthesis examples); settings: for ε: at λmax

| SMILES | Absorption maximum λmax [1] | Solubility in Capric/Caprylic Triglyceride [2] [w-%] | Half time [3] [h] | λmax [4] [nm] | ε [4] [M⁻¹ cm⁻¹] |
| --- | --- | --- | --- | --- | --- |
| CC[Si](CC)(CC)CCCOc1ccc(-c2nc(-c3ccc(-c4ccccc4)cc3)nc(-c3ccc(-c4ccccc4)cc3)n2)c(O)c1 [S-2] | 319 | 22.8 | 412.1 | 319 | 76300 |
| CCO[Si](CCCOc1ccc(-c2nc(-c3ccc(-c4ccccc4)cc3)nc(-c3ccc(-c4ccccc4)cc3)n2)c(O)c1)(OCC)OCC [S-8] | 320 | – | 342.2 | 320 | 75800 |
